The values that follow come from patent US10844013B2, “Phenyl amino piperidine mTORC inhibitors and uses thereof” (Navitor Pharmaceuticals, Inc., priority 2016, dated 2020).

Test [1] relates to pS6K1 (p-p70 S6 Kinase (Thr389)) in MCF-7 cells. The experiment in a line: AlphaLISA Ultra pS6K1 assay. It is filed as cell-based. The conditions noted are these: Homo sapiens, MCF7, 2 h, 2 hours compound incubation. The method, then:
Example 155: AlphaLISA Ultra pS6K1 assay
(§1) Assay Protocol: • 1. Seed MCF-7 cells in Corning 3701 plate and incubate for 20˜24 hour. 12,000˜16,000 cells will be seeded in 36 μL medium per well. • 2. Change the culture medium with fresh medium and incubate for another 2 hours. • 3. Add 12 μL (4×) compounds into the cell plate by HAMILTON. Final DMSO concentration is 0.5%. Incubate for 2 hours. • 4. Aspirate 38 μL by HAMILTON, 10 μL rest per well. • 5. Add 10 μL 2× lysis buffer using HAMILTON; total volume in wells is 20 μL. Allow cells to shake for 30 min. Cover plate by plastic foil and store plate at −80° C. up to analysis. • 6. Thaw cell lysate at RT and transfer 10 ul lysate to assay plate (Optiplate-384). • 7. Add 5 ul acceptor beads into assay plate and incubation for 2 hours • 8. Add 5 ul donor beads and incubation for 2 hours • 9. Count the plate by EnSpire Multimode Plate Reader
On the technique in general: Alpha assays give light when donor and acceptor beads are brought close together.

Test [2] concerns pAKT (p-Akt 1/2/3 (Ser473)) in MCF-7 cells. The experiment in a line: AlphaLISA Ultra pAKT assay. It is filed as cell-based. The following applies: Homo sapiens, MCF7, 2 hours compound incubation. The method, then:
Example 156: AlphaLISA Ultra pAKT Assay
as §1, with “1.” for “1. Seed”, “for 20-24” for “for 20˜24”, “hour. 16,000-20,000” for “hour. 12,000˜16,000”, “38 j L” for “38 μL”

Take `Cc1cc(C)c(C(=O)N2CCN(c3ccccc3S(N)(=O)=O)CC2)cc1NC1CCN(c2ccccc2C)CC1` [I-108, 2-(4-(2,4-Dimethyl-5-(1-o-tolylpiperidin-4-ylamino)benzoyl)piperazin-1-yl)benzenesulfonamide]: the IC50 – broadly, the concentration needed to halve the response being measured – in test [1] is 1000 to 3000 nM; in test [2], above 10000 nM.

`Cc1cc(C)c(C(=O)N2CCN(c3ccc(F)cc3S(N)(=O)=O)CC2)nc1NC1CCN(c2ccccc2C#N)CC1` [I-103, 2-(4-(6-(1-(2-cyanophenyl)piperidin-4-ylamino)-3,5-dimethylpicolinoyl)piperazin-1-yl)-5-fluorobenzenesulfonamide]: the results for the 50% inhibitory concentration (IC50) in test [1] and in test [2] were 1000 to 3000 nM and above 10000 nM, respectively.

Consider `Cc1cc(C)c(C(=O)N2CCN(c3cccc(F)c3S(N)(=O)=O)CC2)cc1NC1CCN(c2c(F)cccc2C#N)CC1` [I-92, 2-(4-(5-(1-(2-Cyano-6-fluorophenyl)piperidin-4-ylamino)-2,4-dimethylbenzoyl)piperazin-1-yl)-6-fluorobenzenesulfonamide], for which the IC50 in test [1] was 1000 to 3000 nM; in test [2], above 10000 nM.

With `Cc1cc(C)c(C(=O)N2CCN(c3ccc(F)cc3)C(CO)C2)cc1NC1CCN(c2ccccc2C#N)CC1` (stereo not drawn) [I-76, 2-[4-({5-[4-(4-fluorophenyl)-3-(hydroxymethyl)piperazine-1-carbonyl]-2,4-dimethylphenyl}amino)piperidin-1-yl]benzonitrile], the IC50 was 10 to 1000 nM in test [1] and above 10000 nM in test [2].

As to `Cc1cc(C)c(C(=O)N2CCN(c3ccccc3)[C@H](C(C)(C)O)C2)cc1NC1CCN(c2ccccc2C#N)CC1` [I-20], the IC50 in test [1] was 1000 to 3000 nM; in test [2], above 10000 nM.

Regarding `Cc1cc(C)c(C(=O)N2CCN(c3cccnn3)[C@H](CO)C2)c(C)c1NC1CCN(c2cccnn2)CC1` [I-160, [(2S)-1-(pyridazin-3-yl)-4-(2,4,6-trimethyl-3-{[1-(pyridazin-3-yl)piperidin-4-yl]amino}benzoyl)piperazin-2-yl]MeOH], the IC50 was 1000 to 3000 nM in test [1] and above 10000 nM in test [2].

As to `Cc1cc(C)c(C(=O)N2CCN(c3ccc(F)cn3)CC2)cc1NC1CCN(c2ccccc2Cl)CC1` [I-36, (5-(1-(2-Chlorophenyl)piperidin-4-ylamino)-2,4-dimethylphenyl)(4-(5-fluoropyridin-2-yl)piperazin-1-yl)methanone], the 50% inhibitory concentration (IC50) was 5000 to 10000 nM in test [1] and above 10000 nM in test [2].

On to `Cc1cc(C)c(C(=O)N2CCN(C(C)C)[C@H](CO)C2)cc1NC1CCN(c2ccccc2C#N)CC1` [I-95, (S)-2-(4-(5-(3-(Hydroxymethyl)-4-isopropylpiperazine-1-carbonyl)-2,4-dimethylphenylamino)piperidin-1-yl)benzonitrile], for which the half-inhibitory concentration (IC50) in test [1] and in test [2] was above 10000 nM throughout.

As for `Cc1cc(C(F)(F)F)c(NC2CCN(c3ccccc3C#N)CC2)cc1C(=O)N1CCN(c2cccnc2S(N)(=O)=O)CC1` [I-172, 3-(4-(5-((1-(2-cyanophenyl)piperidin-4-yl)amino)-2-methyl-4-(trifluoromethyl)benzoyl)piperazin-1-yl)pyridine-2-sulfonamide], the results for the concentration for half-maximal inhibition (IC50) in test [1] and in test [2] were 3000 to 5000 nM and above 10000 nM, respectively.

Turning to `Cc1cc(C)c(C(=O)N2CCN(c3ccccc3C#N)[C@@H](CO)C2)cc1NC1CCN(c2ccccc2C#N)CC1` (single isomer, unassigned) [I-77, 2-[4-({5-[(3R or 3S)-4-(2-Cyanophenyl)-3-(hydroxymethyl)piperazine-1-carbonyl]-2,4-dimethylphenyl}amino)piperidin-1-yl]benzonitrile], the results for the IC50 in test [1] and in test [2] were 10 to 1000 nM and above 10000 nM, respectively.

Regarding `Cc1cc(C)c(C(=O)N2CCN(c3ccccc3C#N)CC2)cc1NC1CCCN(c2cccc(C#N)c2)CC1` (stereo not drawn) [I-81, 2-[4-(5-{[1-(3-cyanophenyl)azepan-4-yl]amino}-2,4-dimethylbenzoyl)piperazin-1-yl]benzonitrile], the IC50 in test [1] and in test [2] was above 10000 nM each time.

As for `Cc1cc(C)c(C(=O)N2CCN(c3cccc(F)c3S(N)(=O)=O)CC2)nc1NC1CCN(c2ccccc2C#N)CC1` [I-16, 2-(4-(6-(1-(2-Cyanophenyl)piperidin-4-ylamino)-3,5-dimethylpicolinoyl)piperazin-1-yl)-6-fluorobenzenesulfonamide], the 50% inhibitory concentration (IC50) in test [1] was 10 to 1000 nM; in test [2], above 10000 nM.

As for `Cc1cc(C)c(C(=O)N2CCN(c3ccccc3)[C@@H](C)C2)cc1NC1CCN(c2ccccc2C#N)CC1` [I-33, (S)-2-(4-(2,4-Dimethyl-5-(3-methyl-4-phenylpiperazine-1-carbonyl)phenylamino)piperidin-1-yl)benzonitrile], the IC50 is 5000 to 10000 nM in test [1] and above 10000 nM in test [2].

With `Cc1cc(C)c(C(=O)N2CCN(c3ccccc3[S@](C)(=N)=O)CC2)nc1NC1CCN(c2ccccc2C#N)CC1` [I-110, (R)-2-(4-(3,5-Dimethyl-6-(4-(2-(S-methylsulfonimidoyl)phenyl)piperazine-1-carbonyl)pyridin-2-ylamino)piperidin-1-yl)benzonitrile], the IC50 in test [1] was 10 to 1000 nM; in test [2] it was above 10000 nM.

For `Cc1cc(C)c(C(=O)N2CCN(c3ccccn3)[C@@H](C)C2)cc1NC1CCN(c2ccccc2C#N)CC1` [I-34, 2-[4-[2,4-Dimethyl-5-[(3S)-3-methyl-4-(2-pyridyl)piperazine-1-carbonyl]anilino]-1-piperidyl]benzonitrile], the IC50 was 1000 to 3000 nM in test [1] and above 10000 nM in test [2].

As to `C=CCN(c1cc(C(=O)N2CCN(c3ccccc3S(N)(=O)=O)CC2)c(C)cc1C)C1CCN(c2ccccc2C#N)CC1` [I-46, 2-(4-(5-(Allyl(1-(2-cyanophenyl)piperidin-4-yl)amino)-2,4-dimethylbenzoyl)piperazin-1-yl)benzenesulfonamide], the figures for the IC50 in test [1] and in test [2] were 1000 to 3000 nM and above 10000 nM, respectively.

Take `COc1cc(C)c(NC2CCN(c3ccccc3C#N)CC2)cc1C(=O)N1CCN(c2ccccc2S(N)(=O)=O)CC1` [I-105, 2-(4-(5-(1-(2-Cyanophenyl)piperidin-4-ylamino)-2-methoxy-4-methylbenzoyl)piperazin-1-yl)benzenesulfonamide]: the IC50 in test [1] is 1000 to 3000 nM; in test [2], above 10000 nM.

Turning to `Cc1cc(C)c(C(=O)N2CCN(c3cc(F)c(F)cc3S(N)(=O)=O)CC2)cc1NC1CCN(c2ccccc2C#N)CC1` [I-104, 2-(4-(5-(1-(2-Cyanophenyl)piperidin-4-ylamino)-2,4-dimethylbenzoyl)piperazin-1-yl)-4,5-difluorobenzenesulfonamide], the values for the 50% inhibitory concentration (IC50) in test [1] and in test [2] were 10 to 1000 nM and above 10000 nM, respectively.

Take `Cc1cc(C)c(C(=O)N2CCN(c3ncccc3S(N)(=O)=O)CC2)c(C)c1N[C@@H]1CCN(c2ccccc2C#N)C[C@H]1C` [I-180, 2-(4-(3-(((3R,4R)-1-(2-cyanophenyl)-3-methylpiperidin-4-yl)amino)-2,4,6-trimethylbenzoyl)piperazin-1-yl)pyridine-3-sulfonamide]: the IC50 is 10 to 1000 nM in test [1] and above 10000 nM in test [2].

Take `Cc1ccc(C(=O)N2CCN(c3ncccc3S(N)(=O)=O)CC2)c(C)c1NC1CCN(c2ccccc2C#N)CC1` [I-120, 2-(4-(3-(1-(2-cyanophenyl)piperidin-4-ylamino)-2,4-dimethylbenzoyl)piperazin-1-yl)pyridine-3-sulfonamide]: the IC50 in test [1] is 10 to 1000 nM; in test [2], above 10000 nM.

On to `CCN(c1cc(C(=O)N2CCN(c3ccccc3S(N)(=O)=O)CC2)c(C)cc1C)C1CCN(c2ccccc2C#N)CC1` [I-51, 2-(4-(5-((1-(2-Cyanophenyl)piperidin-4-yl)(ethyl)amino)-2,4-dimethylbenzoyl)piperazin-1-yl)benzenesulfonamide], for which the IC50 in test [1] was 1000 to 3000 nM; in test [2], above 10000 nM.

Consider `Cc1cccc(N2CCC(Nc3cc(C(=O)N4CCN(c5ccccc5S(N)(=O)=O)CC4)c(C)cc3C)CC2)c1` [I-129, 2-(4-(2,4-Dimethyl-5-(1-m-tolylpiperidin-4-ylamino)benzoyl)piperazin-1-yl)benzenesulfonamide], for which the IC50 is 1000 to 3000 nM in test [1] and above 10000 nM in test [2].

Regarding `Cc1cc(C)c(C(=O)N2CCN(c3ncccc3S(N)(=O)=O)C[C@@H]2C)c(C)c1NC1CCN(c2ccccc2C#N)CC1` [I-188, (S)-2-(4-(3-(1-(2-cyanophenyl)piperidin-4-ylamino)-2,4,6-trimethylbenzoyl)-3-methylpiperazin-1-yl)pyridine-3-sulfonamide], the half-inhibitory concentration (IC50) in test [1] is 1000 to 3000 nM; in test [2], above 10000 nM.

As for `Cc1cc(C)c(C(=O)N2CCN(c3ccccn3)C(C)(C)C2)cc1NC1CCN(c2ccccc2C#N)CC1` [I-118], the concentration for half-maximal inhibition (IC50) is 1000 to 3000 nM in test [1] and above 10000 nM in test [2].
